# Measurements as given in patent US6903132B2, “Non-peptide GnRH agents, pharmaceutical compositions and methods for their use” (Agouron Pharmaceuticals, Inc., priority 2002, dated 2005).
# Test: In vitro metabolism: disappearance of parent compound in liver microsomes (female rat)
# Assay type: in vitro ADME
# Settings: 5 uM compound, 0.5 mg/ml microsomal protein, 2 mM NADPH, 30 minutes at 37° C.
# Experimental: Human, rat, dog, and monkey liver microsomes are isolated by differential centrifugation. Specimens of human liver were obtained from the International Institute for the Advancement of Medicine (Scranton, Pa.). The disappearance of the parent compound is studied in a mixture containing 5 uM compound, 0.5 mg/ml microsomal protein, and 2 mM NADPH in 50 mM K Phosphate buffer, pH 7.4. Samples are incubated for 30 minutes at 37° C. The reaction is terminated by the addition of acetonitrile and compounds analyzed by LC-MS as described above.
structure (smiles),measurement,value
"COc1cc2c(cc1Cc1ccc(C(=O)NNc3cc(C)c4c(C)nn(C)c4n3)o1)C(C)(C)CCC2(C)C [Example C2, 5-[(3-Methoxy-5,5,8,8-tetramethyl-5,6,7,8-tetrahydro-2-naphthalenyl)methyl]-N′-(1,3,4-trimethyl-1H-pyrazolo[3,4-b]pyridin-6-yl)-2-furohydrazide]",Fem. t % rem. 30′,18%
